Experiment [1] in a line: Binding affinity against Sigma opioid receptor type 1 in guinea pig brain membranes using [3H](+)-pentazocine as radioligand.
Experiment [2] in a line: Displacement of [3H]vesamicol from Vesicular Acetylcholine Transporter (VAChT). Background: In a radioligand displacement assay an active substance lowers the binding of a labelled ligand.

Our source for the Ki values is ChEMBL document CHEMBL1132318, “Hydroxylated decahydroquinolines as ligands for the vesicular acetylcholine transporter: synthesis and biological evaluation” (J Med Chem, 1999).

Molecules are shown by their SMILES.

In experiment [1], `O[C@@H]1CCCC[C@H]1N1CCC(c2ccccc2)CC1` [VESAMICOL] yielded a Ki of 0.026 µM.
Molecule `O[C@@H]1CCN(Cc2cccc(I)c2)C[C@H]1N1CCC(c2ccccc2)CC1` (racemic) gave an inhibition constant (Ki) in experiment [2] of 0.00013 µM.

As usually defined, the Ki is the equilibrium dissociation constant of an inhibitor or competing ligand from its target. Higher therefore signals a looser hold on the target.
